Read-outs that look alike come from different tables or passages of the source.
Tests used:
[1] = tested on: M14; test: NCI in-vitro testing, M14 (Melanoma)
[2] = tested on: UACC-62; test: NCI in-vitro testing, UACC-62 (Melanoma)
[3] = tested on: MALME-3M; test: NCI in-vitro testing, MALME-3M (Melanoma)
[4] = tested on: ACHN; test: NCI in-vitro testing, ACHN (Renal Cancer)
[5] = tested on: HL-60(TB); test: NCI in-vitro testing, HL-60(TB) (Leukemia)
[6] = tested on: SK-MEL-28; test: NCI in-vitro testing, SK-MEL-28 (Melanoma)
[7] = tested on: TK-10; test: NCI in-vitro testing, TK-10 (Renal Cancer)
[8] = tested on: MCF7; test: NCI in-vitro testing, MCF7 (Breast Cancer)
[9] = tested on: T-47D; test: NCI in-vitro testing, T-47D (Breast Cancer)
[10] = tested on: BT-549; test: NCI in-vitro testing, BT-549 (Breast Cancer)
[11] = tested on: OVCAR-4; test: NCI in-vitro testing, OVCAR-4 (Ovarian Cancer)
[12] = tested on: SK-OV-3; test: NCI in-vitro testing, SK-OV-3 (Ovarian Cancer)
[13] = tested on: MDA-MB-435; test: NCI in-vitro testing, MDA-MB-435 (Breast Cancer)
[14] = tested on: NCI/ADR-RES; test: NCI in-vitro testing, NCI/ADR-RES (Breast Cancer)
[15] = Homo sapiens, read-out: Log10 GI50 (converted)

**Q.** What does the source list for `OCc1cn(Cc2ccc(Cl)cc2)c2ccccc12` [Oncrasin K060, 1H-Indole-3-methanol, 1-[(4-chlorophenyl)methyl]-]?
**A.** GI50 ([1]; Homo sapiens, M14): 6.16 µM; CC50 ([1]; Homo sapiens, M14, read-out: LC50): 55.9 µM; GI50 ([1]; Homo sapiens, M14, read-out: Log10 GI50 (converted)): 5.13 µM; TGI ([1]; M14): 2.03E−5 Molar; Percent Growth ([1]; M14, Log10 Concentration −4.0 Molar): −79%; Percent Growth ([1]; M14, Log10 Concentration −5.0 Molar): 35%; Percent Growth ([1]; M14, Log10 Concentration −6.0 Molar): 87%; Percent Growth ([1]; M14, Log10 Concentration −7.0 Molar): 94%; Percent Growth ([1]; M14, Log10 Concentration −8.0 Molar): 95%; GI50 ([2]; Homo sapiens, UACC-62): 0.0451 µM; CC50 ([2]; Homo sapiens, UACC-62, read-out: LC50): 11.4 µM; GI50 ([2]; Homo sapiens, UACC-62, read-out: Log10 GI50 (converted)): 0.0447 µM; TGI ([2]; UACC-62): 8.97E−7 Molar; Percent Growth ([2]; UACC-62, Log10 Concentration −4.0 Molar): −94%; Percent Growth ([2]; UACC-62, Log10 Concentration −5.0 Molar): −47%; Percent Growth ([2]; UACC-62, Log10 Concentration −6.0 Molar): −2%; Percent Growth ([2]; UACC-62, Log10 Concentration −7.0 Molar): 35%; Percent Growth ([2]; UACC-62, Log10 Concentration −8.0 Molar): 79%; GI50 ([3]; Homo sapiens, Malme-3M): 51.7 µM; CC50 ([3]; Homo sapiens, Malme-3M, read-out: LC50): 82 µM; GI50 ([3]; Homo sapiens, Malme-3M, read-out: Log10 GI50 (converted)): 5.13 µM; TGI ([3]; MALME-3M): 2.37E−5 Molar; Percent Growth ([3]; MALME-3M, Log10 Concentration −4.0 Molar): −58%; Percent Growth ([3]; MALME-3M, Log10 Concentration −5.0 Molar): 35%; Percent Growth ([3]; MALME-3M, Log10 Concentration −6.0 Molar): 88%; Percent Growth ([3]; MALME-3M, Log10 Concentration −7.0 Molar): 114%; Percent Growth ([3]; MALME-3M, Log10 Concentration −8.0 Molar): 105%; TGI [4]: 2.25E−5 Molar; GI50 ([4]; Homo sapiens): 2 µM; CC50 ([4]; Homo sapiens, read-out: LC50): > 100 µM; GI50 [4, 15]: 2.63 µM; Percent Growth ([4]; Log10 Concentration −4.0 Molar): −30%; Percent Growth ([4]; Log10 Concentration −5.0 Molar): 10%; Percent Growth ([4]; Log10 Concentration −6.0 Molar): 75%; Percent Growth ([4]; Log10 Concentration −7.0 Molar): 92%; Percent Growth ([4]; Log10 Concentration −8.0 Molar): 99%; TGI ([5]; HL-60(TB)): 1.28E−5 Molar; Percent Growth ([5]; HL-60(TB), Log10 Concentration −4.0 Molar): −78%; Percent Growth ([5]; HL-60(TB), Log10 Concentration −5.0 Molar): 9%; Percent Growth ([5]; HL-60(TB), Log10 Concentration −6.0 Molar): 89%; Percent Growth ([5]; HL-60(TB), Log10 Concentration −7.0 Molar): 85%; Percent Growth ([5]; HL-60(TB), Log10 Concentration −8.0 Molar): 95%; GI50 ([5]; Homo sapiens, HL-60): 2.1 µM; CC50 ([5]; Homo sapiens, HL-60, read-out: LC50): 4.31 µM; GI50 ([5]; Homo sapiens, HL-60, read-out: Log10 GI50 (converted)): 2.09 µM; GI50 ([6]; Homo sapiens, SK-MEL-28): 18 µM; CC50 ([6]; Homo sapiens, SK-MEL-28, read-out: LC50): > 100 µM; GI50 ([6]; Homo sapiens, SK-MEL-28, read-out: Log10 GI50 (converted)): 17.8 µM; TGI ([6]; SK-MEL-28): 4.44E−5 Molar; Percent Growth ([6]; SK-MEL-28, Log10 Concentration −4.0 Molar): −15%; Percent Growth ([6]; SK-MEL-28, Log10 Concentration −5.0 Molar): 82%; Percent Growth ([6]; SK-MEL-28, Log10 Concentration −6.0 Molar): 93%; Percent Growth ([6]; SK-MEL-28, Log10 Concentration −7.0 Molar): 99%; Percent Growth ([6]; SK-MEL-28, Log10 Concentration −8.0 Molar): 93%; GI50 ([7]; Homo sapiens, TK-10): 0.0153 µM; CC50 ([7]; Homo sapiens, TK-10, read-out: LC50): > 100 µM; GI50 ([7]; Homo sapiens, TK-10, read-out: Log10 GI50 (converted)): 0.0151 µM; TGI ([7]; TK-10): 8.94E−8 Molar; Percent Growth ([7]; TK-10, Log10 Concentration −4.0 Molar): −18%; Percent Growth ([7]; TK-10, Log10 Concentration −5.0 Molar): −8%; Percent Growth ([7]; TK-10, Log10 Concentration −6.0 Molar): −10%; Percent Growth ([7]; TK-10, Log10 Concentration −7.0 Molar): −3%; Percent Growth ([7]; TK-10, Log10 Concentration −8.0 Molar): 82%; GI50 ([8]; Homo sapiens, MCF7): 0.0573 µM; CC50 ([8]; Homo sapiens, MCF7, read-out: LC50): > 100 µM; GI50 ([8]; Homo sapiens, MCF7, read-out: Log10 GI50 (converted)): 0.0676 µM; TGI ([8]; MCF7): 2.75E−5 Molar; Percent Growth ([8]; MCF7, Log10 Concentration −4.0 Molar): −10%; Percent Growth ([8]; MCF7, Log10 Concentration −5.0 Molar): 8%; Percent Growth ([8]; MCF7, Log10 Concentration −6.0 Molar): 10%; Percent Growth ([8]; MCF7, Log10 Concentration −7.0 Molar): 45%; Percent Growth ([8]; MCF7, Log10 Concentration −8.0 Molar): 75%; GI50 ([9]; Homo sapiens, T47D): 0.0267 µM; CC50 ([9]; Homo sapiens, T47D, read-out: LC50): > 100 µM; GI50 ([9]; Homo sapiens, T47D, read-out: Log10 GI50 (converted)): 0.0269 µM; TGI ([9]; T-47D): 4.23E−7 Molar; Percent Growth ([9]; T-47D, Log10 Concentration −4.0 Molar): −14%; Percent Growth ([9]; T-47D, Log10 Concentration −5.0 Molar): −16%; Percent Growth ([9]; T-47D, Log10 Concentration −6.0 Molar): −12%; Percent Growth ([9]; T-47D, Log10 Concentration −7.0 Molar): 20%; Percent Growth ([9]; T-47D, Log10 Concentration −8.0 Molar): 73%; TGI ([10]; BT-549): 1.73E−5 Molar; Percent Growth ([10]; BT-549, Log10 Concentration −4.0 Molar): −85%; Percent Growth ([10]; BT-549, Log10 Concentration −5.0 Molar): 26%; Percent Growth ([10]; BT-549, Log10 Concentration −6.0 Molar): 97%; Percent Growth ([10]; BT-549, Log10 Concentration −7.0 Molar): 118%; Percent Growth ([10]; BT-549, Log10 Concentration −8.0 Molar): 110%; GI50 ([10]; Homo sapiens, BT-549): 4.62 µM; CC50 ([10]; Homo sapiens, BT-549, read-out: LC50): 4.88 µM; GI50 ([10]; Homo sapiens, BT-549, read-out: Log10 GI50 (converted)): 4.57 µM; GI50 ([11]; Homo sapiens, OVCAR-4): 0.34 µM; CC50 ([11]; Homo sapiens, OVCAR-4, read-out: LC50): > 100 µM; GI50 ([11]; Homo sapiens, OVCAR-4, read-out: Log10 GI50 (converted)): 0.339 µM; TGI ([11]; OVCAR-4): 1.80E−5 Molar; Percent Growth ([11]; OVCAR-4, Log10 Concentration −4.0 Molar): −29%; Percent Growth ([11]; OVCAR-4, Log10 Concentration −5.0 Molar): 10%; Percent Growth ([11]; OVCAR-4, Log10 Concentration −6.0 Molar): 31%; Percent Growth ([11]; OVCAR-4, Log10 Concentration −7.0 Molar): 71%; Percent Growth ([11]; OVCAR-4, Log10 Concentration −8.0 Molar): 94%; GI50 ([12]; Homo sapiens, SK-OV-3): 1.82 µM; CC50 ([12]; Homo sapiens, SK-OV-3, read-out: LC50): > 100 µM; GI50 ([12]; Homo sapiens, SK-OV-3, read-out: Log10 GI50 (converted)): 1.82 µM; TGI ([12]; SK-OV-3): 2.96E−5 Molar; Percent Growth ([12]; SK-OV-3, Log10 Concentration −4.0 Molar): −16%; Percent Growth ([12]; SK-OV-3, Log10 Concentration −5.0 Molar): 16%; Percent Growth ([12]; SK-OV-3, Log10 Concentration −6.0 Molar): 52%; Percent Growth ([12]; SK-OV-3, Log10 Concentration −7.0 Molar): 85%; Percent Growth ([12]; SK-OV-3, Log10 Concentration −8.0 Molar): 96%; GI50 ([13]; Homo sapiens, MDA-MB-435): 19.3 µM; CC50 ([13]; Homo sapiens, MDA-MB-435, read-out: LC50): > 100 µM; GI50 ([13]; Homo sapiens, MDA-MB-435, read-out: Log10 GI50 (converted)): 19.1 µM; TGI ([13]; MDA-MB-435): 5.47E−5 Molar; Percent Growth ([13]; MDA-MB-435, Log10 Concentration −4.0 Molar): −29%; Percent Growth ([13]; MDA-MB-435, Log10 Concentration −5.0 Molar): 81%; Percent Growth ([13]; MDA-MB-435, Log10 Concentration −6.0 Molar): 96%; Percent Growth ([13]; MDA-MB-435, Log10 Concentration −7.0 Molar): 100%; Percent Growth ([13]; MDA-MB-435, Log10 Concentration −8.0 Molar): 102%; TGI [14]: 3.32E−5 Molar; GI50 ([14]; Homo sapiens): 9.22 µM; CC50 ([14]; Homo sapiens, read-out: LC50): > 100 µM; GI50 [14, 15]: 9.12 µM; Percent Growth ([14]; Log10 Concentration −4.0 Molar): −45%; Percent Growth ([14]; Log10 Concentration −5.0 Molar): 49%; Percent Growth ([14]; Log10 Concentration −6.0 Molar): 86%; Percent Growth ([14]; Log10 Concentration −7.0 Molar): 94%; Percent Growth ([14]; Log10 Concentration −8.0 Molar): 103%
